From the NIST ThermoML archive (doi:10.1021/je900545v) come the findings set out here.

Numbers after ± are expanded uncertainties.

The conditions of this series: 298.15 K, 101 kPa, Liquid.

Turning to `C=CCn1cc[n+](C)c1.[Cl-]` [1-allyl-3-methylimidazolium chloride], the mass density – broadly, mass per unit of volume – was 1166 ± 2.7 kg/m3 and the viscosity (as a rule, the internal friction of a fluid under shear) was determined as 821 ± 310 mPa·s. Moreover, under “DDSJ-308A Conductometer”, the electrical conductivity was determined as 0.00695 ± 0.00069 S/m.
